Assay results taken from the kinase profiling compilation of Christmann-Franck et al. (2016).

How the values were obtained:
Assay in all cases: radiometric filter-binding kinase assay
AURKB (human) = AURKB (human) (UniProt Q96GD4)
MAP3K9 (human) = MAP3K9 (human) (UniProt P80192)
MYLK (human) = MYLK (human) (UniProt Q15746)
YES1 (human) = YES1 (human) (UniProt P07947)
MAP3K1 (human) = MAP3K1 (human) (UniProt Q13233)
AURKA (human) = AURKA (human) (UniProt O14965)
MAPK9 (human) = MAPK9 (human) (UniProt P45984)
CSNK1D (human) = CSNK1D (human) (UniProt P48730)
HIPK2 (human) = HIPK2 (human) (UniProt Q9H2X6)
HIPK2 (human), sequence (Q9H2X6 whole entry, looked up): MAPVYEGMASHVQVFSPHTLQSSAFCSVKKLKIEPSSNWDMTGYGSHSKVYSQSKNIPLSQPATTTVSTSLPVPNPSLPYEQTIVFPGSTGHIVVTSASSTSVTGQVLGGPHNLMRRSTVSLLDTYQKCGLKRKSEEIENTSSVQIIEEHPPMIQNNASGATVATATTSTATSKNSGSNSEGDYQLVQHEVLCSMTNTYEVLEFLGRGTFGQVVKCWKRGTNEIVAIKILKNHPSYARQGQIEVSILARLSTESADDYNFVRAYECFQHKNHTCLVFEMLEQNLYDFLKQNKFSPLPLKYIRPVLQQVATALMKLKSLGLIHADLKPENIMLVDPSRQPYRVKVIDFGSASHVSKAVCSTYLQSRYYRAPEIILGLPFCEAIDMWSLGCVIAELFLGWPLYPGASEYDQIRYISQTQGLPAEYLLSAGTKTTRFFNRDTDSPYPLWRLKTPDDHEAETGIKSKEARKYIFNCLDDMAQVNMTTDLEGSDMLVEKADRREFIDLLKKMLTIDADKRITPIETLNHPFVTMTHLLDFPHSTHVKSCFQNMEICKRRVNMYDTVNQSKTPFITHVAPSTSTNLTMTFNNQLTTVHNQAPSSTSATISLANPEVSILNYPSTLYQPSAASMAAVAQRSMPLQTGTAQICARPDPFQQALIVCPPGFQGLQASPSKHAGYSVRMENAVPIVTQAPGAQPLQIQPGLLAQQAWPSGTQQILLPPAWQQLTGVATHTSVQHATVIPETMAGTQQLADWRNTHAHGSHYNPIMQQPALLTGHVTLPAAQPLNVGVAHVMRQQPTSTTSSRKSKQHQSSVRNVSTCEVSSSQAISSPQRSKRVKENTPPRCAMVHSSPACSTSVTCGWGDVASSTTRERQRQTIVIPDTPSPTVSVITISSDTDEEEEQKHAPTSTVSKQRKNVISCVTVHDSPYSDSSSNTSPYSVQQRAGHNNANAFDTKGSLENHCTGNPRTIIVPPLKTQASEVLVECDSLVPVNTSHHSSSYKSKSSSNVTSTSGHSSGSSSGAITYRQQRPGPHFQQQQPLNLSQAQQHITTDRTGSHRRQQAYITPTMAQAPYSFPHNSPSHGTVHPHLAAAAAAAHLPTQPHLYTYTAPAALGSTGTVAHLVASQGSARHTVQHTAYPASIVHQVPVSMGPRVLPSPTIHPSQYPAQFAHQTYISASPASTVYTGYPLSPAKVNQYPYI

GCK (human) = GCK (human) (UniProt Q12851)
MAP2K2 (human) = MAP2K2 (human) (UniProt P36507)
[1] = tested on: AKT2 (human), P31751 [S474D]
MELK (human) = MELK (human) (UniProt Q14680)
MARK4 (human) = MARK4 (human) (UniProt Q96L34)
EPHB1 (human) = EPHB1 (human) (UniProt P54762)
MAPK1 (human) = MAPK1 (human) (UniProt P28482)
TTK (human) = TTK (human) (UniProt P33981)
PRKCZ (human) = PRKCZ (human) (UniProt Q05513)
[2] = tested on: PAK2 (human), Q13177 [T402E]
PAK2 (human), Q13177 [T402E], sequence (Q13177 whole entry T402E, looked up): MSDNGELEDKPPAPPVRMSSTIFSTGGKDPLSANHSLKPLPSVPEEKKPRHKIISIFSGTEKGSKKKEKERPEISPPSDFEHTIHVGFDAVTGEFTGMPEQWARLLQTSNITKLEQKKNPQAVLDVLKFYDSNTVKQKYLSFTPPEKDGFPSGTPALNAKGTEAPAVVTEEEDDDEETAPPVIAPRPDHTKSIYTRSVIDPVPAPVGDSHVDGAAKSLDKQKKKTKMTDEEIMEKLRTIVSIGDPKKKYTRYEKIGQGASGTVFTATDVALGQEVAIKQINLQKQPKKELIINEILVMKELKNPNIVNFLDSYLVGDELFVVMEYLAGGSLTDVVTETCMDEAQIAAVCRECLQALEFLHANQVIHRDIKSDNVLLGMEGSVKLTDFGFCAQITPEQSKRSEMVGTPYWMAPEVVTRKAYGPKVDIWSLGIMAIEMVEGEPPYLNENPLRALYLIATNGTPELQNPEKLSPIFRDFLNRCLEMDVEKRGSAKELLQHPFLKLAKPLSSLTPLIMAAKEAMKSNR

MAPK13 (human) = MAPK13 (human) (UniProt O15264)
MAPK13 (human), sequence (O15264 whole entry, looked up): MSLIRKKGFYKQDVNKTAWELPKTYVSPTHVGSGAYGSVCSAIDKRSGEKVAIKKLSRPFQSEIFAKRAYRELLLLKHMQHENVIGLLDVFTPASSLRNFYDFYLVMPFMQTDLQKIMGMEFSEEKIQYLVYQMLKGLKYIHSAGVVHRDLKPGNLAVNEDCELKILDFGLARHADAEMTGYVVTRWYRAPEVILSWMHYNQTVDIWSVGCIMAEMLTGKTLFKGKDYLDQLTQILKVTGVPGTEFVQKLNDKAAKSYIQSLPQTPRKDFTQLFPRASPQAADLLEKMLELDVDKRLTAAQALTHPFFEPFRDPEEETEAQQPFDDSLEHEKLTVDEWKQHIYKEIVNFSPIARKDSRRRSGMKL

SYK (human) = SYK (human) (UniProt P43405)
MAP3K5 (human) = MAP3K5 (human) (UniProt Q99683)
HIPK1 (human) = HIPK1 (human) (UniProt Q86Z02); conditions: compound 10.0 µM
EEF2K (human) = EEF2K (human) (UniProt O00418)
EEF2K (human), sequence (O00418 whole entry, looked up): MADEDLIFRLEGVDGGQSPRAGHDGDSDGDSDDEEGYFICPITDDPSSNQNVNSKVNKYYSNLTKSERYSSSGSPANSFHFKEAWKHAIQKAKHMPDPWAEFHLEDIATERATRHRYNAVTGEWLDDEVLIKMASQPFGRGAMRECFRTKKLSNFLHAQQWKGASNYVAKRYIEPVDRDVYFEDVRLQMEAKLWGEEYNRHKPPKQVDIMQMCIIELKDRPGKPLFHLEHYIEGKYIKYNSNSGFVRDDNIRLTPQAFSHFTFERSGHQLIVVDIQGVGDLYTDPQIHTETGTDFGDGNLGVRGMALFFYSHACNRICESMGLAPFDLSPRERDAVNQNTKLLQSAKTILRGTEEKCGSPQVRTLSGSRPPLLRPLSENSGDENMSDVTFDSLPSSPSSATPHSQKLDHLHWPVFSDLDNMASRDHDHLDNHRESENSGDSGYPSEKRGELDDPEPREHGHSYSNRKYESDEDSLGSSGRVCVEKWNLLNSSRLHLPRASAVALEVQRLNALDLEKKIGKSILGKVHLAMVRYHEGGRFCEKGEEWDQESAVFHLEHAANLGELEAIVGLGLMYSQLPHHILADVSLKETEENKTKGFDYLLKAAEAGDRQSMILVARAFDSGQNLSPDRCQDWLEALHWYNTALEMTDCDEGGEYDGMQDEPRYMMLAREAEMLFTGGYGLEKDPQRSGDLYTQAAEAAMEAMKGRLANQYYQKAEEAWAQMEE

SRC (human) = SRC (human) (UniProt P12931)
SRC (human), sequence (P12931 whole entry, looked up): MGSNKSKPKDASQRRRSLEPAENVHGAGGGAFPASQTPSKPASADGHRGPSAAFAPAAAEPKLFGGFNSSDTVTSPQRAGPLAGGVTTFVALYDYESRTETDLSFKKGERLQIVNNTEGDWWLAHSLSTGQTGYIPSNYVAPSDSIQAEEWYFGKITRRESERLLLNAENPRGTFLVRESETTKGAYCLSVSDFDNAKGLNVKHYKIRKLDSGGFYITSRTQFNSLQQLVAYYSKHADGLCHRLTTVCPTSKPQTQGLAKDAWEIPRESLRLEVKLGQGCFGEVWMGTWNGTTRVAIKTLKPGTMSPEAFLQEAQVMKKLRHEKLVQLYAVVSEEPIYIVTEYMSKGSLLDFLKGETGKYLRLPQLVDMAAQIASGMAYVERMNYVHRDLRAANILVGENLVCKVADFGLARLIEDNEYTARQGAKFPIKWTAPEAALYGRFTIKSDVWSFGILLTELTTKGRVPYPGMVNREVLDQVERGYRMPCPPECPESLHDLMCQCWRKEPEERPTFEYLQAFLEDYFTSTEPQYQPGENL

GSK3B (human) = GSK3B (human) (UniProt P49841)
EPHB4 (human) = EPHB4 (human) (UniProt P54760)
FLT1 (human) = FLT1 (human) (UniProt P17948)
PAK6 (human) = PAK6 (human) (UniProt Q9NQU5)
FGFR1 (human) = FGFR1 (human) (UniProt P11362)
IGF1R (human) = IGF1R (human) (UniProt P08069)
IGF1R (human), sequence (P08069 whole entry, looked up): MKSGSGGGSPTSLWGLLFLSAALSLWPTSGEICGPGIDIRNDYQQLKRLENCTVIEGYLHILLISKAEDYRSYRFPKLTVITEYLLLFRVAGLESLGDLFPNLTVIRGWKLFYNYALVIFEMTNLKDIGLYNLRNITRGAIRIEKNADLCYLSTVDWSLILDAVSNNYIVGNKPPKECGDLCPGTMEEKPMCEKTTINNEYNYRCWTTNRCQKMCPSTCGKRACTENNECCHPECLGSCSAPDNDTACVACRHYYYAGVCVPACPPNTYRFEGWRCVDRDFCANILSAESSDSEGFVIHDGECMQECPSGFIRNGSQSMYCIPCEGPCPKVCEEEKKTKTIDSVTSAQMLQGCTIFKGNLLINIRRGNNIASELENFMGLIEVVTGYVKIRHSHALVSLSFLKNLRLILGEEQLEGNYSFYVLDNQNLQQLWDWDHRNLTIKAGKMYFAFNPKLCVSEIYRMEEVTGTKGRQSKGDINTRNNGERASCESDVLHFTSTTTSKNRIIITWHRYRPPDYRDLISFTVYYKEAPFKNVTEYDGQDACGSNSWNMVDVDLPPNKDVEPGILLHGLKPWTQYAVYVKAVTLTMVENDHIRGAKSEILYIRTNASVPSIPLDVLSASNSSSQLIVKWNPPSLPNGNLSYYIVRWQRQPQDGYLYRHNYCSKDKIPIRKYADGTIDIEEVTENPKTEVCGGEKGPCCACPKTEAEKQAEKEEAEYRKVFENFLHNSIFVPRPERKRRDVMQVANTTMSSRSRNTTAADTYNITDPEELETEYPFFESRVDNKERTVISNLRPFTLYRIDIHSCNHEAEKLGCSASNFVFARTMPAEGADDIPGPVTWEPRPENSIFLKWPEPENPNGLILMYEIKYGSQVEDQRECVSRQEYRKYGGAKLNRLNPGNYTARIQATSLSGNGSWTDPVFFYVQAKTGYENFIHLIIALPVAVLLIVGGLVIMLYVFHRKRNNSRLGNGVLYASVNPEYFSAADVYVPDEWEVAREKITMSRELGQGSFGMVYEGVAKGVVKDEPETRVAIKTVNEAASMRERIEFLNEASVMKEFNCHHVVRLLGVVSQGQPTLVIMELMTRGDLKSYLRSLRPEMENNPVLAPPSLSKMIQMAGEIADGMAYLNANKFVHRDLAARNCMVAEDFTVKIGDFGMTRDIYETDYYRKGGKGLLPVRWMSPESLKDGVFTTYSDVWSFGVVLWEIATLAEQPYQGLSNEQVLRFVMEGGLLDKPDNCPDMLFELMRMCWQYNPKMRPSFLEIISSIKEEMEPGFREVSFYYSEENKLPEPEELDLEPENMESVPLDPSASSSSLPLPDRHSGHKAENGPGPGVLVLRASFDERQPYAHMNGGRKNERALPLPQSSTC

CHEK1 (human) = CHEK1 (human) (UniProt O14757)
PKN2 (human) = PKN2 (human) (UniProt Q16513)
MAPK10 (human) = MAPK10 (human) (UniProt P53779)
[3] = molecular target: STK11 CAB39 STRADA (human) (UniProt Q9Y376+Q7RTN6+Q15831)
TAOK1 (human) = TAOK1 (human) (UniProt Q7L7X3)

AURKB (human), sequence (Q96GD4 whole entry, looked up): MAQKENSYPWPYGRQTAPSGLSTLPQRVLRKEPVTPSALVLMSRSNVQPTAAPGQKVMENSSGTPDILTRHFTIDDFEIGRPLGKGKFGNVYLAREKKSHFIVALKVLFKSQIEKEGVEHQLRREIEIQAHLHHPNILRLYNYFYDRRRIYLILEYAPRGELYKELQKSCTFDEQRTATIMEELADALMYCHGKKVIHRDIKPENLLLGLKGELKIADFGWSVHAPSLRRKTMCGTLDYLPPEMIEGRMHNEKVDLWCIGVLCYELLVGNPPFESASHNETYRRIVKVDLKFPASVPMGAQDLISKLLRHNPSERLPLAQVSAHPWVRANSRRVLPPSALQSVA

For Cc1ccc2c(c1)C(=O)[C@@]1(O)CCN(c3ccccc3)C1=N2, the residual activity (AURKB (human); compound 10.0 µM) was 88%, the residual activity (MAP3K9 (human); compound 10.0 µM) was 101% and the residual activity (MYLK (human); compound 10.0 µM) was 74%. It also gave a residual activity (YES1 (human); compound 10.0 µM) of 96%, a residual activity (MAP3K1 (human); compound 10.0 µM) of 100% and a residual activity (AURKA (human); compound 10.0 µM) of 99%. It also gave a residual activity (MAPK9 (human); compound 10.0 µM) of 88%, a residual activity (CSNK1D (human); compound 10.0 µM) of 99% and a residual activity (CSNK1D (human); compound 100.0 µM) of 91%. For the same compound, the residual activity (HIPK2 (human); compound 10.0 µM) was 98%, the residual activity (GCK (human); compound 10.0 µM) was 97% and the residual activity (MAP2K2 (human); compound 10.0 µM) was 81%. For the same compound, the residual activity ([1]; compound 10.0 µM) was 74%, the residual activity (MELK (human); compound 10.0 µM) was 96% and the residual activity (MARK4 (human); compound 10.0 µM) was 94%. The residual activity (EPHB1 (human); compound 10.0 µM) was 97%, the residual activity (MAPK1 (human); compound 10.0 µM) was 91% and the residual activity (MAPK1 (human); compound 100.0 µM) was 82%. The residual activity (TTK (human); compound 10.0 µM) was 87%, the residual activity (PRKCZ (human); compound 10.0 µM) was 108% and the residual activity ([2]; compound 10.0 µM) was 87%. For the same compound, the residual activity (MAPK13 (human); compound 10.0 µM) was 81%, the residual activity (MAPK13 (human); compound 100.0 µM) was 116% and the residual activity (SYK (human); compound 10.0 µM) was 105%. The residual activity (MAP3K5 (human); compound 10.0 µM) was 91%, the residual activity (HIPK1 (human)) was 88% and the residual activity (EEF2K (human); compound 10.0 µM) was 83%. The residual activity (SRC (human); compound 10.0 µM) was 80%, the residual activity (GSK3B (human); compound 10.0 µM) was 88% and the residual activity (GSK3B (human); compound 100.0 µM) was 66%. It also gave a residual activity (EPHB4 (human); compound 10.0 µM) of 99%, a residual activity (FLT1 (human); compound 10.0 µM) of 85% and a residual activity (PAK6 (human); compound 10.0 µM) of 83%. For the same compound, the residual activity (FGFR1 (human); compound 10.0 µM) was 118%, the residual activity (IGF1R (human); compound 10.0 µM) was 88% and the residual activity (CHEK1 (human); compound 10.0 µM) was 90%. For the same compound, the residual activity (CHEK1 (human); compound 100.0 µM) was 96%, the residual activity (PKN2 (human); compound 10.0 µM) was 95% and the residual activity (MAPK10 (human); compound 10.0 µM) was 99%. The residual activity ([3]; compound 10.0 µM) was 81% and the residual activity (TAOK1 (human); compound 10.0 µM) was 82%.
COc1cc2ncn(-c3cc(OCc4ccccc4S(C)(=O)=O)c(C#N)s3)c2cc1OC gave a residual activity (AURKB (human); compound 1.0 µM) of 6%, a residual activity (AURKB (human); compound 10.0 µM) of 4% and a residual activity (MAP3K9 (human); compound 1.0 µM) of 28%. It also gave a residual activity (MAP3K9 (human); compound 10.0 µM) of 8%, a residual activity (MYLK (human); compound 1.0 µM) of 89% and a residual activity (MYLK (human); compound 10.0 µM) of 61%. It also gave a residual activity (YES1 (human); compound 1.0 µM) of 43%, a residual activity (YES1 (human); compound 10.0 µM) of 58% and a residual activity (MAP3K1 (human); compound 1.0 µM) of 77%. It also gave a residual activity (MAP3K1 (human); compound 10.0 µM) of 54%, a residual activity (AURKA (human); compound 1.0 µM) of 29% and a residual activity (AURKA (human); compound 10.0 µM) of 6%. It also gave a residual activity (MAPK9 (human); compound 1.0 µM) of 95%, a residual activity (MAPK9 (human); compound 10.0 µM) of 90% and a residual activity (CSNK1D (human); compound 1.0 µM) of 89%. For the same compound, the residual activity (CSNK1D (human); compound 10.0 µM) was 91%, the residual activity (HIPK2 (human); compound 1.0 µM) was 49% and the residual activity (HIPK2 (human); compound 10.0 µM) was 32%. The residual activity (GCK (human); compound 1.0 µM) was 24%, the residual activity (GCK (human); compound 10.0 µM) was 8% and the residual activity (MAP2K2 (human); compound 1.0 µM) was 75%. It also gave a residual activity (MAP2K2 (human); compound 10.0 µM) of 57%, a residual activity ([1]; compound 1.0 µM) of 72% and a residual activity ([1]; compound 10.0 µM) of 98%. For the same compound, the residual activity (MELK (human); compound 1.0 µM) was 84%, the residual activity (MELK (human); compound 10.0 µM) was 59% and the residual activity (MARK4 (human); compound 1.0 µM) was 57%. For the same compound, the residual activity (MARK4 (human); compound 10.0 µM) was 42%, the residual activity (EPHB1 (human); compound 1.0 µM) was 79% and the residual activity (EPHB1 (human); compound 10.0 µM) was 95%. It also gave a residual activity (MAPK1 (human); compound 1.0 µM) of 104%, a residual activity (MAPK1 (human); compound 10.0 µM) of 88% and a residual activity (TTK (human); compound 1.0 µM) of 83%. It also gave a residual activity (PRKCZ (human); compound 1.0 µM) of 97%, a residual activity (PRKCZ (human); compound 10.0 µM) of 95% and a residual activity ([2]; compound 1.0 µM) of 94%. The residual activity ([2]; compound 10.0 µM) was 111%, the residual activity (MAPK13 (human); compound 1.0 µM) was 112% and the residual activity (MAPK13 (human); compound 10.0 µM) was 86%. The residual activity (SYK (human); compound 1.0 µM) was 95%, the residual activity (SYK (human); compound 10.0 µM) was 87% and the residual activity (MAP3K5 (human); compound 1.0 µM) was 83%. The residual activity (MAP3K5 (human); compound 10.0 µM) was 69%, the residual activity (HIPK1 (human)) was 58% and the residual activity (EEF2K (human); compound 1.0 µM) was 105%. For the same compound, the residual activity (EEF2K (human); compound 10.0 µM) was 98%, the residual activity (SRC (human); compound 1.0 µM) was 57% and the residual activity (SRC (human); compound 10.0 µM) was 64%. The residual activity (GSK3B (human); compound 1.0 µM) was 90%, the residual activity (GSK3B (human); compound 10.0 µM) was 68% and the residual activity (EPHB4 (human); compound 1.0 µM) was 94%. For the same compound, the residual activity (EPHB4 (human); compound 10.0 µM) was 82%, the residual activity (FLT1 (human); compound 1.0 µM) was 15% and the residual activity (FLT1 (human); compound 10.0 µM) was 23%. It also gave a residual activity (PAK6 (human); compound 1.0 µM) of 95%, a residual activity (PAK6 (human); compound 10.0 µM) of 67% and a residual activity (FGFR1 (human); compound 1.0 µM) of 49%. The residual activity (FGFR1 (human); compound 10.0 µM) was 49%, the residual activity (IGF1R (human); compound 1.0 µM) was 89% and the residual activity (IGF1R (human); compound 10.0 µM) was 92%. It also gave a residual activity (CHEK1 (human); compound 1.0 µM) of 79%, a residual activity (CHEK1 (human); compound 10.0 µM) of 64% and a residual activity (PKN2 (human); compound 1.0 µM) of 63%. The residual activity (PKN2 (human); compound 10.0 µM) was 64%, the residual activity (MAPK10 (human); compound 1.0 µM) was 99% and the residual activity (MAPK10 (human); compound 10.0 µM) was 77%. The residual activity ([3]; compound 1.0 µM) was 80%, the residual activity ([3]; compound 10.0 µM) was 62% and the residual activity (TAOK1 (human); compound 1.0 µM) was 61%. It also gave a residual activity (TAOK1 (human); compound 10.0 µM) of 27%.
